The values that follow come from patent US4717713A, “Controlled release liquid pharmaceutical” (Research Corporation, priority 1983, dated 1988).

Molecules are shown by their SMILES.

This data set in a line: In vitro dissolution of theophylline from solutions/suspensions (U.S.P. paddle, simulated gastric fluid, 37° C.). The class given is physicochemical. Particulars: Table II; 50 R.P.M.; no polymers present.

Procedure: Standard U.S.P. Teflon coated stainless steel paddles and round bottom glass beakers were employed. The desired stirrer speed was maintained by commercial feedback control circuitry (50 RPM is illustrated by way of example). The dissolution medium was 1000 ml of Simulated Gastric Fluid U.S.P. without enzyme in most cases, kept at 37° C. by a water bath with a heat/circulator unit.
Suspension was placed into the filled beaker near the surface by 0.27 cm inner radius glass tube attached by plastic tubing to a three ml disposable syringe. Two ml of suspension was pulled up into the tube, the exterior wiped clean, one ml was extruded into the dissolution medium beneath the surface, and the suspension separated from the glass tube by cutting with a razor blade. The technique produced uniform cylindrical matrices in most cases.
In all cases, the total amount of drug released into the dissolution medium was less than ten percent of that needed to saturate the medium, so that sink conditions were maintained.
A precise volume was withdrawn near the top of the dissolution medium for each sample. The volume ranged from 0.1 ml to 3.0 ml. […]
Standard curves were concentrated for theophylline in simulated gastric fluid USP. Samples were diluted to read within the linear concentration range and absorbance was read at 272 nm using a single beam spectrophotometer.

For `Cn1c(=O)c2[nH]cnc2n(C)c1=O` [Theophylline Powder, theophylline], the “T 50% (time for 50% theophylline to dissolve)” value was less than 5 min.
